Assays:
[1] = test system: Plasmodium falciparum; assay: Antiplasmodial activity against chloroquine sensitive Plasmodium falciparum NF54 assessed as reduction in [3H]-hypoxanthine incorporation incubated for 48 hrs by liquid scintillation counting method; assay type: functional, organism-based
[2] = test system: Plasmodium falciparum; assay: Antiplasmodial activity against chloroquine and pyrimethamine resistant Plasmodium falciparum K1 assessed as reduction in [3H]-hypoxanthine incorporation incubated for 48 hrs by liquid scintillation counting method; assay type: functional, organism-based
[3] = Selectivity index, ratio of IC50 for rat L6 cells to IC50 for chloroquine and pyrimethamine resistant Plasmodium falciparum K1; assay type: toxicity; conditions: L6 cells versus Plasmodium falciparum K1, read-out: Ratio IC50
[4] = test system: L6; assay: Cytotoxicity in rat L6 cells assessed as reduction in cell viability incubated for 72 hrs by alamar blue dye based assay; conditions: L6, 72 h
[5] = test system: Plasmodium berghei; assay: Antiplasmodial activity against GFP-transfected Plasmodium berghei ANKA infected in NMRI mouse assessed as reduction in parasitaemia at 50 mg/kg/day, ip for 4 days measured on 24 hrs after last dose by FACS analysis; assay type: functional; parameters: scale not given: the % may be the effect or the level left
[6] = test system: Plasmodium berghei; assay: Antiplasmodial activity against GFP-transfected Plasmodium berghei ANKA infected in NMRI mouse assessed as mouse survival at 50 mg/kg/day, ip for 4 days measured up to 30 days; assay type: functional
[7] = Selectivity index, ratio of IC50 for rat L6 cells to IC50 for chloroquine sensitive Plasmodium falciparum NF54; assay type: toxicity; conditions: L6 cells versus Plasmodium falciparum NF54, read-out: Ratio IC50

Row | Compound | IC50 [1] [µM] | IC50 [2] [µM] | selectivity ratio [3] | IC50 [4] [µM] | Activity [5] [%] | Survival [6] [days] | selectivity ratio [7]
1 | O=C(NCCCN(CCCCCCCN(CCCNC(=O)C1CCC2(CC1)OOC1(O2)C2CC3CC(C2)CC1C3)C(=O)C1CCC2(CC1)OOC1(O2)C2CC3CC(C2)CC1C3)C(=O)C1CCC2(CC1)OOC1(O2)C2CC3CC(C2)CC1C3)C1CCC2(CC1)OOC1(O2)C2CC3CC(C2)CC1C3 (stereo unspecified) | 0.287 | 0.076 | > 934 | > 71 | – | – | –
2 | C[C@H]1[C@H](OC(=O)CCC(=O)NCCCN(CCCCCCCCN(CCCNC(=O)CCC(=O)O[C@@H]2O[C@@H]3O[C@@]4(C)CC[C@H]5[C@H](C)CC[C@@H]([C@H]2C)[C@@]35OO4)C(=O)OC(C)(C)C)C(=O)OC(C)(C)C)O[C@@H]2O[C@@]3(C)CC[C@H]4[C@H](C)CC[C@@H]1[C@@]24OO3 | 0.0007 | 0.0008 | 700 | 0.56 | – | – | –
3 | CC(C)(C)OC(=O)N(CCCCN(CCCNC(=O)C1CCC2(CC1)OOC1(O2)C2CC3CC(C2)CC1C3)C(=O)OC(C)(C)C)CCCNC(=O)C1CCC2(CC1)OOC1(O2)C2CC3CC(C2)CC1C3 (stereo unspecified) | 0.0051 | 0.0092 | 7160 | 65.8 | 96.4 | 9.3 | –
4 | CC(C)(C)OC(=O)N(CCCCCCCCCCN(CCCNC(=O)C1CCC2(CC1)OOC1(O2)C2CC3CC(C2)CC1C3)C(=O)OC(C)(C)C)CCCNC(=O)C1CCC2(CC1)OOC1(O2)C2CC3CC(C2)CC1C3 (stereo unspecified) | 0.097 | 0.06 | 1180 | 70.9 | – | – | –
5 | CC(C)(C)OC(=O)N(CCCCCCCCN(CCCNC(=O)C1CCC2(CC1)OOC1(O2)C2CC3CC(C2)CC1C3)C(=O)OC(C)(C)C)CCCNC(=O)C1CCC2(CC1)OOC1(O2)C2CC3CC(C2)CC1C3 (stereo unspecified) | 0.079 | 0.059 | 976 | 57.6 | – | – | –
6 | C[C@H]1[C@H](OC(=O)CCC(=O)NCCCN(CCCCCCCCCCN(CCCNC(=O)CCC(=O)O[C@@H]2O[C@@H]3O[C@@]4(C)CC[C@H]5[C@H](C)CC[C@@H]([C@H]2C)[C@@]35OO4)C(=O)OC(C)(C)C)C(=O)OC(C)(C)C)O[C@@H]2O[C@@]3(C)CC[C@H]4[C@H](C)CC[C@@H]1[C@@]24OO3 | 0.0008 | 0.0008 | 625 | 0.5 | – | – | –
7 | C[C@H]1[C@H](OC(=O)CCC(=O)NCCCN(CCCCCCCN(CCCNC(=O)CCC(=O)O[C@@H]2O[C@@H]3O[C@@]4(C)CC[C@H]5[C@H](C)CC[C@@H]([C@H]2C)[C@@]35OO4)C(=O)CCC(=O)O[C@@H]2O[C@@H]3O[C@@]4(C)CC[C@H]5[C@H](C)CC[C@@H]([C@H]2C)[C@@]35OO4)C(=O)CCC(=O)O[C@@H]2O[C@@H]3O[C@@]4(C)CC[C@H]5[C@H](C)CC[C@@H]([C@H]2C)[C@@]35OO4)O[C@@H]2O[C@@]3(C)CC[C@H]4[C@H](C)CC[C@@H]1[C@@]24OO3 | 0.0008 | 0.0006 | 2070 | 1.24 | – | – | –
8 | C[C@H]1[C@H](OC(=O)CCC(=O)O)O[C@@H]2O[C@@]3(C)CC[C@H]4[C@H](C)CC[C@@H]1[C@@]24OO3 [ARTESUNATE] | 0.0026 | 0.0005 | 13300 | 6.63 | – | – | –
9 | O=C(NCCCN(CCCCN(CCCNC(=O)C1CCC2(CC1)OOC1(O2)C2CC3CC(C2)CC1C3)C(=O)C1CCC2(CC1)OOC1(O2)C2CC3CC(C2)CC1C3)C(=O)C1CCC2(CC1)OOC1(O2)C2CC3CC(C2)CC1C3)C1CCC2(CC1)OOC1(O2)C2CC3CC(C2)CC1C3 (stereo unspecified) | 0.098 | 0.0062 | 8130 | 50.4 | – | – | –
10 | C[C@H]1[C@H](OC(=O)CCC(=O)NCCCN(CCCCN(CCCNC(=O)CCC(=O)O[C@@H]2O[C@@H]3O[C@@]4(C)CC[C@H]5[C@H](C)CC[C@@H]([C@H]2C)[C@@]35OO4)C(=O)CCC(=O)O[C@@H]2O[C@@H]3O[C@@]4(C)CC[C@H]5[C@H](C)CC[C@@H]([C@H]2C)[C@@]35OO4)C(=O)CCC(=O)O[C@@H]2O[C@@H]3O[C@@]4(C)CC[C@H]5[C@H](C)CC[C@@H]([C@H]2C)[C@@]35OO4)O[C@@H]2O[C@@]3(C)CC[C@H]4[C@H](C)CC[C@@H]1[C@@]24OO3 | 0.0003 | – | – | 11.2 | 95.5 | 30 | 37300
11 | O=C(NCCCN(CCCCCCN(CCCNC(=O)C1CCC2(CC1)OOC1(O2)C2CC3CC(C2)CC1C3)C(=O)C1CCC2(CC1)OOC1(O2)C2CC3CC(C2)CC1C3)C(=O)C1CCC2(CC1)OOC1(O2)C2CC3CC(C2)CC1C3)C1CCC2(CC1)OOC1(O2)C2CC3CC(C2)CC1C3 (stereo unspecified) | 0.022 | 0.011 | 5740 | 63.2 | – | – | –
12 | CC(C)(C)OC(=O)N(CCCCCCN(CCCNC(=O)C1CCC2(CC1)OOC1(O2)C2CC3CC(C2)CC1C3)C(=O)OC(C)(C)C)CCCNC(=O)C1CCC2(CC1)OOC1(O2)C2CC3CC(C2)CC1C3 (stereo unspecified) | 0.021 | 0.005 | 10800 | 59.2 | 79.4 | 6.7 | –
13 | C[C@H]1[C@H](OC(=O)CCC(=O)NCCCN(CCCCCCCCCCN(CCCNC(=O)CCC(=O)O[C@@H]2O[C@@H]3O[C@@]4(C)CC[C@H]5[C@H](C)CC[C@@H]([C@H]2C)[C@@]35OO4)C(=O)CCC(=O)O[C@@H]2O[C@@H]3O[C@@]4(C)CC[C@H]5[C@H](C)CC[C@@H]([C@H]2C)[C@@]35OO4)C(=O)CCC(=O)O[C@@H]2O[C@@H]3O[C@@]4(C)CC[C@H]5[C@H](C)CC[C@@H]([C@H]2C)[C@@]35OO4)O[C@@H]2O[C@@]3(C)CC[C@H]4[C@H](C)CC[C@@H]1[C@@]24OO3 | 0.0006 | 0.0011 | 445 | 0.49 | – | – | –
14 | O=C(NCCCN(CCCCCCCCN(CCCNC(=O)C1CCC2(CC1)OOC1(O2)C2CC3CC(C2)CC1C3)C(=O)C1CCC2(CC1)OOC1(O2)C2CC3CC(C2)CC1C3)C(=O)C1CCC2(CC1)OOC1(O2)C2CC3CC(C2)CC1C3)C1CCC2(CC1)OOC1(O2)C2CC3CC(C2)CC1C3 (stereo unspecified) | 0.026 | 0.011 | 5380 | 59.2 | – | – | –
15 | O=C(NCCCN(CCCCCCCCCCN(CCCNC(=O)C1CCC2(CC1)OOC1(O2)C2CC3CC(C2)CC1C3)C(=O)C1CCC2(CC1)OOC1(O2)C2CC3CC(C2)CC1C3)C(=O)C1CCC2(CC1)OOC1(O2)C2CC3CC(C2)CC1C3)C1CCC2(CC1)OOC1(O2)C2CC3CC(C2)CC1C3 (stereo unspecified) | 0.088 | 0.03 | > 2300 | > 69 | – | – | –
16 | C[C@H]1[C@H](OC(=O)CCC(=O)NCCCN(CCCCCCN(CCCNC(=O)CCC(=O)O[C@@H]2O[C@@H]3O[C@@]4(C)CC[C@H]5[C@H](C)CC[C@@H]([C@H]2C)[C@@]35OO4)C(=O)CCC(=O)O[C@@H]2O[C@@H]3O[C@@]4(C)CC[C@H]5[C@H](C)CC[C@@H]([C@H]2C)[C@@]35OO4)C(=O)CCC(=O)O[C@@H]2O[C@@H]3O[C@@]4(C)CC[C@H]5[C@H](C)CC[C@@H]([C@H]2C)[C@@]35OO4)O[C@@H]2O[C@@]3(C)CC[C@H]4[C@H](C)CC[C@@H]1[C@@]24OO3 | 0.0006 | 0.0006 | 1470 | 0.88 | – | – | –
17 | CC(C)(C)OC(=O)N(CCCCCCCN(CCCNC(=O)C1CCC2(CC1)OOC1(O2)C2CC3CC(C2)CC1C3)C(=O)OC(C)(C)C)CCCNC(=O)C1CCC2(CC1)OOC1(O2)C2CC3CC(C2)CC1C3 (stereo unspecified) | 0.0454 | 0.0322 | > 3020 | > 100 | 94.7 | 7.3 | –
18 | C[C@H]1[C@H](OC(=O)CCC(=O)NCCCN(CCCCCCCN(CCCNC(=O)CCC(=O)O[C@@H]2O[C@@H]3O[C@@]4(C)CC[C@H]5[C@H](C)CC[C@@H]([C@H]2C)[C@@]35OO4)C(=O)OC(C)(C)C)C(=O)OC(C)(C)C)O[C@@H]2O[C@@]3(C)CC[C@H]4[C@H](C)CC[C@@H]1[C@@]24OO3 | 0.0006 | 0.0008 | 1210 | 0.97 | – | – | –
19 | O=C(O)C1CCC2(CC1)OOC1(O2)C2CC3CC(C2)CC1C3 (stereo unspecified) | 0.0065 | 0.0028 | 49600 | 139 | – | – | –
20 | C[C@H]1[C@H](OC(=O)CCC(=O)NCCCN(CCCCCCN(CCCNC(=O)CCC(=O)O[C@@H]2O[C@@H]3O[C@@]4(C)CC[C@H]5[C@H](C)CC[C@@H]([C@H]2C)[C@@]35OO4)C(=O)OC(C)(C)C)C(=O)OC(C)(C)C)O[C@@H]2O[C@@]3(C)CC[C@H]4[C@H](C)CC[C@@H]1[C@@]24OO3 | 0.0008 | 0.0009 | 733 | 0.66 | – | – | –
21 | C[C@H]1[C@H](OC(=O)CCC(=O)NCCCN(CCCCCCCCN(CCCNC(=O)CCC(=O)O[C@@H]2O[C@@H]3O[C@@]4(C)CC[C@H]5[C@H](C)CC[C@@H]([C@H]2C)[C@@]35OO4)C(=O)CCC(=O)O[C@@H]2O[C@@H]3O[C@@]4(C)CC[C@H]5[C@H](C)CC[C@@H]([C@H]2C)[C@@]35OO4)C(=O)CCC(=O)O[C@@H]2O[C@@H]3O[C@@]4(C)CC[C@H]5[C@H](C)CC[C@@H]([C@H]2C)[C@@]35OO4)O[C@@H]2O[C@@]3(C)CC[C@H]4[C@H](C)CC[C@@H]1[C@@]24OO3 | 0.0008 | 0.0006 | 1500 | 0.9 | – | – | –

— ChEMBL document CHEMBL4190368, “Synthesis and antimalarial evaluation of artesunate-polyamine and trioxolane-polyamine conjugates” (Eur J Med Chem, 2017)
